The target in one assay is T1, E. coli FabD (Escherichia coli, UniProt P0AAI9).
T1 construct: made in house; host or cells: E. coli
Put plainly: in vitro FabD (MCAT) enzyme inhibition assay, HPLC of CoA peak. As to conditions: protocol of Molnos et al. The assay is classed as biochemical. On the procedure:
Compounds synthesized using MCR, as described above, were tested for their ability to inhibit FabD using an in vitro inhibition assay. Briefly, FabD and holo-ACP was cloned, and expressed in E. coli according to the protocol of Molnos et al., Anal. Biochem. 2003, 319, 171. The proteins were purified using the ACTA protein purification system. The inhibition study was carried out according to the protocol of Miossec et al., American Society for Microbiology 104th General Meeting, New Orleans, 2004 (LA. Abstract: K-001), and was performed in a final volume of 100 μl in 96-well microtiter plates (IEA/RIA black, flat bottom, half area plates, Costar).
Purified E. coli FabD was diluted in the enzyme dilution buffer (100 mM phosphate buffer pH 7, DTT 1.5 mM, BSA 1 mg/ml [30 ml of Assay buffer+30 mg of BSA]) at ten times the final concentration (0.75 ng/ml). Malonyl-CoA (10 mM, Sigma) was diluted to ten times the final concentration (25 uM) with distilled H2O. Holo-ACP was prepared to 874 μM. […] The reaction mixture was analyzed by anion exchange, high performance liquid chromatography, using a PL-SAX8u 4.6 mm×150 mm column (Polymer Laboratories) and UV-detection (CoA and malonyl-CoA are detected at 254 nm). The percent inhibition of FabD was calculated by integrating the area of the CoA peak in the chromatogram. […]

A further assay concerns p53. Put plainly: inhibition of p53.
For the next assay, the system named is caspase. Put plainly: inhibition of caspase.
Assay [1] has as its system 32D cl 3 mouse hematopoietic progenitor cells. Put plainly: radioprotection, survival curves of irradiated 32D cl 3 cells. Type of assay: cell-based. Particulars: for radioprotective effect on cells: 10 μM, compound added before or after radiation; for Do (Gy): compound at 10 μM, ionizing radiation survival curve. On the procedure:
To measure the level of radioprotection for compounds in Table 3, a DMSO solution is made for each compound and added to 32D cl 3 cells, a mouse hematopoietic progenitor cell line at a final concentration of 10 μM. The terms “radioprotection” and “radioprotective” refer to the protective effect on normal cells exerted by the captioned compounds when such cells are exposed to ionizing radiation.
FIGS. 2-4 show the survival curves for 32D cl 3 cells in the presence of different compounds of the invention. A strong radioprotective effect is seen in cultures that include the captioned compounds. FIGS. 2 and 3 show cell survival curves when the captioned compounds were added to cell cultures before exposure to radiation. The survival curves in FIG. 4, however, show the radioprotective effect of the inventive compounds when delivered to cell cultures after exposure to ionizing radiation. […] Moreover, the extent of radioprotection in a culture that is pretreated with an inventive compound is similar to that observed in a culture in which such compound is added after exposure to radiation.
The extent of radioprotection afforded by the captioned compounds is determined by measuring the fraction of viable cells in a culture containing the captioned radioprotective agent. The fraction of viable cells is determined by back-extrapolating the linear portion of the shoulder width in a survival curve to the Y-axis.

Each structure is given as a SMILES string.

T1 sequence (P0AAI9 whole entry): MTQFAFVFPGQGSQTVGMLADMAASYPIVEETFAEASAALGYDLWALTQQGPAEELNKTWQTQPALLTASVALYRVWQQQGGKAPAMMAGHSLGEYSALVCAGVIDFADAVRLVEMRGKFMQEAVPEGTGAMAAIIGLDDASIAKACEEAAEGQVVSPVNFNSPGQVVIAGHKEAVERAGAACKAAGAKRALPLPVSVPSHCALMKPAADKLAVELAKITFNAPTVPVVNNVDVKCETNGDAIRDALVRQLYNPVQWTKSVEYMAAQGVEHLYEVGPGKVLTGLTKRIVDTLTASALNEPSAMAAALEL

`CC(C)=CCC[C@H](C)CC(NC1CCSC1=O)C(=O)NC(c1ccccc1)c1ccccc1` (stereo partly drawn) [Compound 13a, (S)-4,8-Dimethyl-2-(2-oxo-tetrahydro-thiophen-3-ylamino)-non-7-enoic acid benzhydryl-amide]: the “ability to inhibit FabD” value at E. coli FabD is “potent inhibitors”.

In the case of `COC(=O)CNC(=O)C(NC1CCSC1=O)C1CC1` (racemic) [BEB 69], the “inhibition of p53” value with p53 is listed as “p53 inhibitors”. In addition, the inhibition of caspase entry with caspase is “inhibit caspase”.

Turning to `O=C(NCc1ccccc1)[C@@H]1CSC(=O)[C@H](Cc2ccccc2)N1` (single isomer, unassigned) [BEB 75-1], in assay [1], the “radioprotective effect on cells” value is reported as “potent radioprotective effect” and the “Do (Gy)” value is 0.9 ± 0.1 Gy.

As to `Cc1cc(C)c(NC(=O)C(NC2CCSC2=O)C(C)C)c(C)c1` (stereo not shown) [Compound 15a, 3-Methyl-2-(2-oxo-tetrahydro-thiophen-3-ylamino)-N-(2,4,6-trimethyl-phenyl)-butyramide], at E. coli FabD, the “ability to inhibit FabD” value was “potent inhibitors”.

`Clc1cccc(Cc2ncn(CC3CC3)c2-c2c[nH]c3ccccc23)c1` [BEB 59]: the “inhibition of p53” value in the assay on p53 is listed as “inhibitors of p53”. Also, the “Do (Gy)” value in assay [1] is given as 1.1 ± 0.1 Gy.

Turning to `Clc1ccc(-c2ncn(CC3CC3)c2-c2c[nH]c3ccccc23)cc1` [BEB 55], the “inhibition of p53” value in the assay with p53 is recorded as “inhibitors of p53”. In assay [1], the “Do (Gy)” value is listed as 1.1 ± 0.1 Gy.

With `Cc1cn(CC(NC2CCSC2=O)C(=O)NC(C)(C)C)c(=O)[nH]c1=O` (racemic) [SK7], the inhibition of caspase result in the assay on caspase is “inhibit caspase”. Moreover, in assay [1], the “radioprotective effect on cells” value is given as “potent radioprotective effect” and the “Do (Gy)” value came out at 1.1 ± 0.1 Gy.

(Values after patent US20100022520A1, “MALONYL-COA ACETYLTRANSFERASE INHIBITORS AGAINST ANTIBIOTIC RESISTANT BACTERTIA” (University of Pittsburgh -- Of the Commonwealth System of …, priority 2008, published 2010).)
